Measurements from patent publication US20240277861A1, “ANTI-HEPATITIS B VIRUS AGENT TARGETING HOST FACTOR LIPG” (PUROTECH BIO, INC., priority 2021, published 2024).
Residues, ends and D or L forms follow the SMILES beside them.

Tests used:
[1] = assay type: physicochemical
From the text: Therefore, peptides designed by reducing the number of amino acid residues in these two peptides to 8 (LIPH4-23s and LIPH4-NTNBs) were next chemically synthesized.

HBV [2] = assay: Anti-HBV activities of LIPG-binding peptides in PXB cells; assay type: cell-based; settings: HBV-infected PXB cells
Protocol: An infection source medium was prepared by adding the HBV-infected chimeric mouse serum (PhoenixBio), DMSO, and a PEG 8000 solution to the PXB cell culture medium (PhoenixBio) at final concentrations of 5 genome equivalents/cell, 2%, and 4%, respectively. Various synthesized peptides were diluted to different concentrations in this medium, and the resulting media were added individually to PXB cells (PhoenixBio). After the cells were left to stand in a 5% CO2 incubator at 37° C. for 20 to 28 hours, the medium was removed and the wells were washed once with PBS(−). DMSO and one of the various synthesized peptides were added to the PXB cell culture medium at a final concentration of 2% and different concentrations, respectively, and the resulting media were added individually to the PXB cells to perform medium exchange. This medium exchange was performed at 1, 5, and 9 days post infection and samples were collected at 14 days post infection.
(§1) SMI TEST™ M EX-R&D (Medical & Biological Laboratories) was used to extract DNA from the samples. The extracted DNA was used as a template for quantitative PCR of HBV-DNA. For cccDNA detection, the extracted DNA was treated with T5 exonuclease (New England Biolabs), and the resulting DNA was used as a template for quantitative PCR. The T5 exonuclease treatment was performed at 37° C. for 30 minutes, and the DNase was later inactivated by heating at 80° C. for 15 minutes. The following primer set was used for detection.
PXB cells, fresh human liver cells isolated from PXB mice (human hepatocyte chimeric mice), are human liver cells that maintain human liver functions at high levels and allow persistent infection with hepatitis B virus (HBV). Therefore, PXB cells were used to evaluate the anti-HBV activities of LIPG-binding peptides. LIPG-binding peptides were chemically synthesized because they were added extracellularly (Eurofins Genomics K.K.). Clones that had shown excellent results in the studies of Examples 10 and 1 (KIgk-LIPH4-23, KIgk-LIPH4-74, KIgk-LIPH4-15, KIgk-L1l 14-2. KIgk-LIPH14-14. KIgk-LIPH4-87) were selected for chemical synthesis of the peptides. […] Therefore, LIPH4-NTNA and LIPH4-NTNB, which share a common sequence with netrins and consist of 16 amino acids, were also chemically synthesized. The chemically synthesized peptides were dissolved in DMSO for use in HBV assays in PXB cells.
Next, the anti-HBV activity of full-length Netrin-1 was examined in PXB cells. A full-length human recombinant Netrin-1 protein consisting of 604 amino acid residues (molecular weight: 67.5 kDa, SEQ ID NO: 28) was purchased from R&D Systems. United States. A shRNA with the sequence […]ctcgagc[…] TTTTTTG (single underline: terminal sequences for cloning, lowercase letters: hairpin loop sequence) (SEQ ID NO: 64) was used to knock down the Netrin-1 gene.

HBV [3] = assay: Anti-HBV activities of LIPG-binding peptides in HepG2-NTCP-C4 cells (plasmid transfection); assay type: cell-based
Protocol: as §1
Cells were infected with HBV derived from HepG2.2.15 at 20,000 genome equivalents/cell, and plasmids carrying different peptides were transfected individually into the cells 12 to 15 days post infection using Lipofectamine 3000. Samples were collected 3 to 5 days after transfection for evaluation of HBV-DNA, cccDNA, pgRNA, and the like.
For the clones positive in the pull-down experiment against full-length LIPG, the anti-HBV activities of the LIPG peptides were evaluated in HepG2-NTCP-C4 cells (FIG. 17). A secretion signal is added to a plasmid carrying each peptide. Therefore, the peptides are expected to be secreted from cells transfected with the plasmids and to bind to LIPG in the extracellular environment. […] Moreover, the copy number of cccDNA was reduced by almost all the clones.

[4] = target: T1, full-length form of LIPG (500 amino acids) (Homo sapiens, UniProt Q9Y5X9); assay: Pull-down assay of LIPH4 peptides against full-length LIPG; assay type: binding; settings: culture supernatant of transfected 293T cells, compared with no bait
T1 construct: A pull-down assay was performed on the full-length form of LIPG (500 amino acids); made in house
T1 sequence (Q9Y5X9 21-500): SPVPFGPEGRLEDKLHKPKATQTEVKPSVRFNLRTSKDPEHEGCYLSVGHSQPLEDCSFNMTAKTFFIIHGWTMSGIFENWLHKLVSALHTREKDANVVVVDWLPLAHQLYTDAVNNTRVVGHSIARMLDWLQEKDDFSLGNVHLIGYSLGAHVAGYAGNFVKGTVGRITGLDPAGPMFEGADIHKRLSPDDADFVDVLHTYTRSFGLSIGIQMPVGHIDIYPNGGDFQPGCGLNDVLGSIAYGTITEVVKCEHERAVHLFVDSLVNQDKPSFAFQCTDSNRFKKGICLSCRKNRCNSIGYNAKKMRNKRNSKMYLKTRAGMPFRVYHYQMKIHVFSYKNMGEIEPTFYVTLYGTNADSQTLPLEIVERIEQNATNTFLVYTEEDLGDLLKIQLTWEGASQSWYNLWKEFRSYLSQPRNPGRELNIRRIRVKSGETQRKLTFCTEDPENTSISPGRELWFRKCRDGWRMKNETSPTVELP
Protocol: Human embryonic kidney 293T cells were cultured in DMEM (1.0 g/l glucose) with L-Gln and Sodium Pyruvate, liquid (Nacalai) supplemented with 10% FCS ([…]). Plating was performed in a 1:2 ratio on 6 cm dishes 24 hours before transfection. Lipofectamine 2000 in a volume of 20 μl was added to 500 μl of Opti-MEM 1 and allowed to stand for 5 minutes at room temperature, and the resulting mixture was gently added to a 6 cm dish containing a mixture of 500 μl of Opti-MEM 1 and 8 μg of a plasmid DNA. The resulting mixture was allowed to stand for 20 minutes at room temperature, and then added to a 6 cm dish containing 293T cells, and the cells were cultured at 37° C. in 5% CO2 for 4 to 6 day.
Resin (Streptavidin MagneSphere Paramagnetic Particles) (Promega) was washed using the MagneSphere Technology Magnetic Separation Stand (tweleve-position). The resin in a volume of 40 μl was added to each 1.5 ml tube, and after removal of the solution, washed three times with 1 ml of PBS. The resin was transferred to new tubes and mixed with 0.5 nmol (109 μl) of LIPG-BioFLAGHis or with 109 μl of PBS as a no bait control, and the resulting mixtures were agitated at 4° C. for 1 hour by rotation on a mini-disk rotor (BIO CRAFT) to allow binding. After removal of the solution, the resin was washed three times with 1 ml of TBST (containing 0.05% Tween 20). The resin was transferred to new tubes, blocked with 1 ml of ELISA BSA buffer (TBS, 0.05%, Tween 20, 1% BSA. Nacalai Tesque, Inc.) at 4° C. for 1 hour, and then washed three times with 1 ml of ELISA BSA buffer. The resin was transferred to new tubes, and 1000 μl of the culture supernatant containing expressed KIgk-LIPH4 was mixed with […] of the resin treated with LIPG-BioFLAGHis or without the bait, and the resulting mixtures were agitated at 4° C. for 1 hour and 30 minutes by rotation on a mini-disk rotor (BIO CRAFT) to allow binding. After removal of the solution, the resin was washed three times with […] of TBST (Tween 20, 0.1%), and the recovered resin was used for Western blotting.
Each resin was mixed with water and LDS sample buffer (4×), 0.2 mM DTT, heated at 70° C. for 10 minutes, and then subjected to SDS-PAGE. SDS-PAGE was performed using 4-12% Bis-Tris gel and NuPAGE MES-SDS electrophoresis buffer (Invitrogen) at 200 V and 400 mA for 35 minutes. After electrophoresis, transfer was performed using Mini Format, 0.2-μm PVDF, Single-application (BIO-RAD) Trans-Blot Turbo. The membrane was blocked with a Blocking One Buffer: TBST (1:9) solution and reacted with an anti-Flag-HRP (Sigma: A8592) diluted 2:3000 in a Blocking One Buffer: TBST (1:9) solution. Detection was performed using ECL (Enhanced ChemiLuminescence) on a ChemiDoc (BIO-RAD).
A pull-down assay was performed on the full-length form of LIPG (500 amino acids) with LIPH4 peptides (FIG. 16).

[5] = target: T2, N4BP1 (NEDD4 Binding Protein 1)
T2 chain: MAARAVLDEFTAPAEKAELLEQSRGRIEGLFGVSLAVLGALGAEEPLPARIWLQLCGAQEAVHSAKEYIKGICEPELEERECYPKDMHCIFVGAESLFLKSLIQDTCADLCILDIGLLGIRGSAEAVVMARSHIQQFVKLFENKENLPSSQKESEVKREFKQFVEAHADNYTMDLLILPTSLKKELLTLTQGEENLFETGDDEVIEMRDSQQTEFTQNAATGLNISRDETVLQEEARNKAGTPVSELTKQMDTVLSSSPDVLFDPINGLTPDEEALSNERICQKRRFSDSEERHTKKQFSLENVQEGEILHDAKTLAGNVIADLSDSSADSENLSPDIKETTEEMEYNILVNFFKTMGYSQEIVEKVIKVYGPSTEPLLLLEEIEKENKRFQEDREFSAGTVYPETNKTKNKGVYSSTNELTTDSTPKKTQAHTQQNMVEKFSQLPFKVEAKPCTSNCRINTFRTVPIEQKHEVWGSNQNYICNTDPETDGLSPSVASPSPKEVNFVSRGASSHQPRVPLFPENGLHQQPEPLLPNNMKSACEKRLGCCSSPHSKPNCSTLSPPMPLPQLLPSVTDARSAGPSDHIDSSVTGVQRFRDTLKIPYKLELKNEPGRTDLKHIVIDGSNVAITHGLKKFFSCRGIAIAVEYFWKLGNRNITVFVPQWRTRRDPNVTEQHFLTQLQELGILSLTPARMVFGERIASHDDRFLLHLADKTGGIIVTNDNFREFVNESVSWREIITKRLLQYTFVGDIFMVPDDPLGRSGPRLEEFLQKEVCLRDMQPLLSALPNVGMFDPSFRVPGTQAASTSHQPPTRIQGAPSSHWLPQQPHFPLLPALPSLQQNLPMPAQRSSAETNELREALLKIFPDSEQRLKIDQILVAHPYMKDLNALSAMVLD

In the case of `C[C@H](NC(=O)[C@@H](NC(=O)[C@H](CC(N)=O)NC(=O)[C@H](Cc1c[nH]cn1)NC(=O)[C@H](CCCNC(=N)N)NC(=O)[C@H](CS)NC(=O)[C@@H](N)CC(N)=O)[C@@H](C)O)C(=O)NCC(=O)O` [LIPH4-NTNBs] (H-NCRHNTAG-OH; N-terminus and C-terminus assumed), the “solubility in PBS” value [1] is reported as “soluble in PBS (water soluble)”.

With `CC(C)C[C@H](N)C(=O)N[C@@H](CC(N)=O)C(=O)N[C@@H](CS)C(=O)N[C@@H](CCCNC(=N)N)C(=O)N[C@@H](CC(=O)O)C(=O)N[C@@H](CC(N)=O)C(=O)N[C@H](C(=O)N[C@@H](CCCNC(=N)N)C(=O)O)[C@@H](C)O` [LIPH4-23s] (H-LNCRDNTR-OH; N-terminus and C-terminus assumed) the “solubility in PBS” value [1] was “soluble in PBS (water soluble)”.

With LNCRDNTRPVMSAMTC (LIPH4-23) the “anti-HBV activity (effect to reduce HBV DNA and cccDNA copy numbers)” value (HBV [2]) was “high anti-HBV activity” and the anti-HBV activity (HBV [3]) was “remarkable anti-HBV activity”.

For LNCRDNTRPVMSAMTC [KIgk-LIPH4-23], the “binding to LIPG in pull-down assay” value [4] was “positive” and the “copy number of HBV-DNA” value (HBV [3]; vs control) was “reduced the copy number of HBV-DNA to near zero”.

B1: LIPG (500 aa, MW: 56.8 kDa) (protein)
chain: T1 sequence (Q9Y5X9 21-500)
With B1 the “degradation of a 1203-base HBV L protein RNA by N4BP1 (RNase activity), agarose gel” value [5] was “the degradation of the RNA was suppressed in the presence of LIPG by binding of LIPG to N4BP1”.
